Experiments:
Details in all cases: 72 h
[1] = tested on: HepG2; test: relative viability EC50 (midpoint between 100% and the lowest measured viability); higher = less toxic
[2] = tested on: Caco-2; test: as above
[3] = tested on: Vero E6; test: as above
[4] = tested on: U2OS; test: as above
[5] = tested on: Calu-3; test: as above
[6] = tested on: HepG2; test: drug sensitivity score (DSS) for viability; higher = more toxic; extreme values may be limits of the assay
[7] = tested on: Caco-2; test: as above
[8] = tested on: Vero E6; test: as above
[9] = tested on: U2OS; test: as above
[10] = tested on: Calu-3; test: as above
[11] = tested on: HepG2; test: cell viability relative to DMSO; higher = less toxic
[12] = tested on: Caco-2; test: as above
[13] = tested on: Vero E6; test: as above
[14] = tested on: U2OS; test: as above
[15] = tested on: Calu-3; test: as above

| SMILES | relative viability EC50 [1] | relative viability EC50 [2] | relative viability EC50 [3] | relative viability EC50 [4] | relative viability EC50 [5] | drug sensitivity score [6] | drug sensitivity score [7] | drug sensitivity score [8] | drug sensitivity score [9] | drug sensitivity score [10] | cell viability ([11]; 1 nM) | cell viability ([11]; 10 nM) | cell viability ([11]; 100 nM) | cell viability ([11]; 1000 nM) | cell viability ([11]; 10000 nM) | cell viability ([12]; 1 nM) | cell viability ([12]; 10 nM) | cell viability ([12]; 100 nM) | cell viability ([12]; 1000 nM) | cell viability ([12]; 10000 nM) | cell viability ([13]; 1 nM) | cell viability ([13]; 10 nM) | cell viability ([13]; 100 nM) | cell viability ([13]; 1000 nM) | cell viability ([13]; 10000 nM) | cell viability ([14]; 1 nM) | cell viability ([14]; 10 nM) | cell viability ([14]; 100 nM) | cell viability ([14]; 1000 nM) | cell viability ([14]; 10000 nM) | cell viability ([15]; 1 nM) | cell viability ([15]; 10 nM) | cell viability ([15]; 100 nM) | cell viability ([15]; 1000 nM) | cell viability ([15]; 10000 nM) |
| --- | --- | --- | --- | --- | --- | --- | --- | --- | --- | --- | --- | --- | --- | --- | --- | --- | --- | --- | --- | --- | --- | --- | --- | --- | --- | --- | --- | --- | --- | --- | --- | --- | --- | --- | --- |
| CCC(=O)Nc1cccc(Oc2nc(Nc3ccc(N4CCN(C)CC4)cc3OC)ncc2Cl)c1 [WZ4003] | > 10 µM | > 10 µM | > 10 µM | > 10 µM | > 10 µM | 0 | 0 | 0 | 0 | 0.7 | 100% | 94.3% | 102% | 90.9% | 104% | 99.3% | 105% | 102% | 99.5% | 89.3% | 101% | 100% | 102% | 96.2% | 98.6% | 97.3% | 103% | 103% | 105% | 102% | 97% | 97.7% | 94.8% | 96.3% | 82.5% |
| C=C1CC[C@@]2(O)[C@H]3Cc4ccc(O)c5c4[C@@]2(CCN3CC2CC2)[C@H]1O5 [nalmefene] | > 10 µM | > 10 µM | > 10 µM | > 10 µM | > 10 µM | 0 | 0 | 0 | 0 | 0 | 102% | 95.3% | 110% | 95.1% | 113% | 95.5% | 94.6% | 93.8% | 102% | 99.3% | 106% | 96.9% | 96.8% | 98.3% | 107% | 95.6% | 98.6% | 93.7% | 99.4% | 106% | 96.6% | 97.5% | 106% | 88.6% | 103% |
| CCCCc1nc2cc(/C=C/C(=O)NO)ccc2n1CCN(CC)CC [SB-939] | 0.362 µM | 0.766 µM | 0.417 µM | 0.425 µM | 0.195 µM | 16.8 | 12.9 | 16.3 | 15.5 | 17.6 | 99.3% | 109% | 89% | 15.7% | 0% | 98% | 97.4% | 98% | 37.6% | 0.6% | 107% | 99.1% | 95.5% | 13.4% | -0.1% | 101% | 105% | 83.9% | 27.9% | 1.1% | 95.4% | 89.6% | 65.5% | 30.7% | 7.8% |
| CS(=O)(=O)c1ccc(C2=C(c3ccccc3)C(=O)OC2)cc1 [rofecoxib] | > 10 µM | > 10 µM | > 10 µM | > 10 µM | > 10 µM | 0 | 0 | 0 | 0 | 0 | 95.7% | 104% | 95.2% | 103% | 101% | 96.4% | 93.8% | 100% | 91.1% | 92.7% | 93.6% | 105% | 88.4% | 95.3% | 102% | 101% | 98.9% | 100% | 98.8% | 99.5% | 99.1% | 100% | 98% | 101% | 102% |
| c1ccc(CC2=NCCN2)cc1 [tolazoline] | > 10 µM | > 10 µM | > 10 µM | > 10 µM | > 10 µM | 0 | 0 | 0 | 0 | 0 | 97.3% | 102% | 101% | 108% | 99.9% | 103% | 93.1% | 97.5% | 95% | 98% | 108% | 111% | 104% | 106% | 98.6% | 99.9% | 97.9% | 102% | 101% | 101% | 103% | 103% | 87.3% | 98.4% | 114% |
| OCc1cncc(F)c1 [5-fluoro-3-pyridyl-methanol] | > 10 µM | > 10 µM | > 10 µM | > 10 µM | > 10 µM | 0 | 0 | 0 | 0 | 0 | 106% | 104% | 109% | 97.2% | 102% | 96% | 106% | 102% | 107% | 106% | 104% | 104% | 102% | 98.8% | 105% | 98.4% | 105% | 98.4% | 104% | 97.8% | 101% | 97.2% | 95.1% | 99.3% | 99.9% |
| O=C(O)CCC(=O)O [succinic-acid] | > 10 µM | > 10 µM | > 10 µM | > 10 µM | > 10 µM | 0 | 0 | 0 | 0 | 0 | 110% | 100% | 110% | 101% | 99.8% | 92.2% | 89.7% | 86% | 94.8% | 93.5% | 104% | 96.6% | 95.5% | 98.4% | 104% | 95.5% | 102% | 97.7% | 102% | 101% | 97.2% | 105% | 98.5% | 101% | 97.5% |
| CN1CC(O)C2=C/C(=N/NC(N)=O)C(=O)C=C21 (stereo not given) [carbazochrome] | > 10 µM | > 10 µM | > 10 µM | > 10 µM | > 10 µM | 0 | 0 | 0 | 0 | 0 | 98.8% | 97% | 92.2% | 97.1% | 93.1% | 93.3% | 88.5% | 91.5% | 102% | 109% | 101% | 97% | 93.9% | 96.8% | 103% | 101% | 97.6% | 98.2% | 92.7% | 101% | 105% | 95.3% | 103% | 93.9% | 93.4% |
| NC(=O)C1=CN([C@@H]2O[C@H](COP(=O)(O)OP(=O)(O)OC[C@H]3O[C@@H](n4cnc5c(N)ncnc54)[C@H](O)[C@@H]3O)[C@@H](O)[C@H]2O)C=CC1 [coenzyme-I] | > 10 µM | > 10 µM | > 10 µM | > 10 µM | > 10 µM | 0 | 0 | 0 | 0 | 0 | 93.3% | 103% | 89.4% | 111% | 90.2% | 103% | 94.2% | 88.7% | 98.7% | 108% | 93% | 96.4% | 89.3% | 97.2% | 105% | 103% | 97.5% | 101% | 95.9% | 113% | 91.4% | 92.2% | 100% | 93.2% | 97.3% |
| O=C1CCCCCCCCCCCCCCO1 [oxacyclohexadecan-2-one] | > 10 µM | > 10 µM | > 10 µM | > 10 µM | > 10 µM | 0 | 0 | 0 | 0 | 0 | 109% | 93.8% | 105% | 86% | 97.7% | 103% | 95.1% | 90% | 92.8% | 102% | 102% | 106% | 102% | 88.8% | 102% | 101% | 98.9% | 95.8% | 101% | 98% | 93.2% | 99.1% | 91.9% | 90% | 90.7% |
| CC(C)(C)[C@]1(O)CCN2C[C@H]3c4ccccc4CCc4cccc(c43)[C@@H]2C1 [butaclamol] | > 10 µM | > 10 µM | > 10 µM | > 10 µM | > 10 µM | 0 | 0 | 0 | 0 | 0 | 108% | 100% | 96.3% | 90% | 95.5% | 101% | 94.3% | 93.9% | 99.6% | 94.5% | 98.4% | 103% | 104% | 98% | 102% | 95.5% | 101% | 92% | 101% | 90.2% | 90% | 99.7% | 97.2% | 112% | 94.9% |
| CC(C)c1cc(C(=O)N2Cc3ccc(CN4CCN(C)CC4)cc3C2)c(O)cc1O | 0.068 µM | 0.174 µM | 0.492 µM | 0.232 µM | 0.145 µM | 26 | 13.1 | 11 | 18.8 | 13.3 | 108% | 103% | 28.4% | 1.5% | 1.2% | 98.5% | 94.8% | 85.8% | 40% | 39.1% | 104% | 104% | 101% | 40.4% | 30.7% | 101% | 102% | 85.3% | 8.1% | 3.4% | 101% | 96.4% | 77.8% | 41.7% | 38.9% |
| CCCCCCOC(=O)CCC(=O)CN [hexaminolevulinate] | > 10 µM | > 10 µM | > 10 µM | > 10 µM | > 10 µM | 0 | 0 | 0 | 0 | 0 | 111% | 105% | 99% | 102% | 101% | 102% | 93.7% | 101% | 104% | 96.6% | 109% | 98% | 104% | 99.2% | 99.5% | 100% | 102% | 98.1% | 103% | 98.4% | 93.9% | 101% | 111% | 108% | 104% |
| CNC(=N)NC(=O)Nc1c(C)cccc1C [lidamidine] | > 10 µM | > 10 µM | > 10 µM | > 10 µM | > 10 µM | 0 | 0 | 0 | 0 | 0 | 101% | 89.3% | 106% | 104% | 108% | 90.4% | 99% | 91.9% | 95.3% | 92.5% | 99.6% | 96% | 97.7% | 102% | 105% | 98.6% | 100% | 97.7% | 99.5% | 100% | 103% | 102% | 96.2% | 88.7% | 104% |
| O=c1[nH]c2ccccc2n1CCCN1CCN(C(c2ccccc2)c2ccccc2)CC1 [oxatomide] | > 10 µM | > 10 µM | > 10 µM | > 10 µM | > 10 µM | 1.9 | 0.1 | 0 | 0 | 0 | 97.7% | 104% | 114% | 81.7% | 92.2% | 117% | 98.6% | 99.1% | 112% | 83.7% | 106% | 93.1% | 99.9% | 91.7% | 95.6% | 100% | 102% | 94.1% | 97.1% | 106% | 107% | 96.1% | 105% | 99.2% | 101% |

Reference: the supplement of paper PMC13380429
